Test results: patent publication US7923468B2, “1,4-benzothiepin-1,1-dioxide derivatives which are substituted with cyclohexyl groups, method for producing the same, drugs containing said compounds and use thereof” (Sanofi-Aventis Deutschland GmbH, priority 2006, dated 2011)

Target: T1, human IBAT (Homo sapiens, UniProt Q12908)
T1 construct: Bases 599 to 1645 correspond to the complete coding region of human IBAT; expressed in transfected cells
T1 sequence (Q12908 1-348): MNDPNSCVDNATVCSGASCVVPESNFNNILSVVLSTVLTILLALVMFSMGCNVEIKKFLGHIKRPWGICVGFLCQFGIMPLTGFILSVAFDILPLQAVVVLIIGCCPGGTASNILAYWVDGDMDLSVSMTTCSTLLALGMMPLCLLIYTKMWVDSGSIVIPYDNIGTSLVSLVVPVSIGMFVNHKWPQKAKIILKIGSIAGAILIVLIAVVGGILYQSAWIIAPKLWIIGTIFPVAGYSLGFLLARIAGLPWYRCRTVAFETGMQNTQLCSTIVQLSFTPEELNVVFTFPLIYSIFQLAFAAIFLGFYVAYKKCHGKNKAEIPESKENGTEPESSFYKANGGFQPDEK
Assay: In vitro IBAT inhibition assay: uptake of [3H]-taurocholic acid into CHO-hIBAT cells
Assay type: cell-based
Conditions: taurocholic acid 10 μM, 60 min at room temperature, read-out: IC-50 (human IBAT)
From the text: Preparation and Procedure for the In Vitro IBAT Inhibition Assay:
• 1. Cloning of an Expression Vector for Human IBAT
The cDNA (complementary deoxyribonucleic acid) of human IBAT was cloned by standard methods of molecular biology as described for example in Molecular Cloning: A Laboratory Manual by Joseph Sambrook and David Russell, and introduced into the pcDNA1 vector from Invitrogen. […] Bases 599 to 1645 correspond to the complete coding region of human IBAT. • 2. Preparation of a Recombinant Cell Line with Constitutive Expression of Human IBAT
The expression vector for human IBAT was introduced by stable transfection into CHO (chinese hamster ovary) cells. […]
CHO-hIBAT cells were seeded in a concentration of 40 000 cells per well in poly-D-lysine-coated 96-well plates in cell culture medium and cultured for 24 h. […] Finally, 100 μl of scintillation fluid were added to each well, and the radioactivity taken up into the cells was determined in a MicroBeta Scintillation Microplate Reader from Wallac.
The half-maximum inhibitory effect of the test compound (IC50 value, inhibitory concentration 50) was determined in the following way: • 1. […] This is the measurement in the absence of substance, measured in sodium-containing transport assay buffer. • 2. […] This is the measurement in the absence of substance, measured in sodium-free transport assay buffer. • 3. […]

Row | IC50 [µM] | SMILES
1 | 0.0042 | CCCC[C@]1(CC)CS(=O)(=O)c2ccc(N(C)C)cc2[C@@H](c2cccc(NC(=O)N[C@@H]3[C@@H](O)[C@H](OCc4ccccc4)[C@@H](O)[C@H](OCc4ccccc4)[C@H]3O)c2)[C@H]1O [Example 1]
2 | 0.016 | CCCC[C@]1(CC)CS(=O)(=O)c2ccc(N(C)C)cc2[C@@H](c2cccc(NC(=O)N[C@@H]3[C@@H](OS(=O)(=O)O)[C@H](OCc4ccccc4)[C@@H](OS(=O)(=O)O)[C@H](OCc4ccccc4)[C@H]3OS(=O)(=O)O)c2)[C@H]1O [Example 2]
